According to ChEMBL document CHEMBL4507319 (2021):

Key:
[1] = target: T1, Ephrin type-B receptor 1 (Homo sapiens) (UniProt P54762); assay: EphB1(h) Eurofins kinase panel; details: Compound concentration 1.0 uM
T1 sequence (whole entry): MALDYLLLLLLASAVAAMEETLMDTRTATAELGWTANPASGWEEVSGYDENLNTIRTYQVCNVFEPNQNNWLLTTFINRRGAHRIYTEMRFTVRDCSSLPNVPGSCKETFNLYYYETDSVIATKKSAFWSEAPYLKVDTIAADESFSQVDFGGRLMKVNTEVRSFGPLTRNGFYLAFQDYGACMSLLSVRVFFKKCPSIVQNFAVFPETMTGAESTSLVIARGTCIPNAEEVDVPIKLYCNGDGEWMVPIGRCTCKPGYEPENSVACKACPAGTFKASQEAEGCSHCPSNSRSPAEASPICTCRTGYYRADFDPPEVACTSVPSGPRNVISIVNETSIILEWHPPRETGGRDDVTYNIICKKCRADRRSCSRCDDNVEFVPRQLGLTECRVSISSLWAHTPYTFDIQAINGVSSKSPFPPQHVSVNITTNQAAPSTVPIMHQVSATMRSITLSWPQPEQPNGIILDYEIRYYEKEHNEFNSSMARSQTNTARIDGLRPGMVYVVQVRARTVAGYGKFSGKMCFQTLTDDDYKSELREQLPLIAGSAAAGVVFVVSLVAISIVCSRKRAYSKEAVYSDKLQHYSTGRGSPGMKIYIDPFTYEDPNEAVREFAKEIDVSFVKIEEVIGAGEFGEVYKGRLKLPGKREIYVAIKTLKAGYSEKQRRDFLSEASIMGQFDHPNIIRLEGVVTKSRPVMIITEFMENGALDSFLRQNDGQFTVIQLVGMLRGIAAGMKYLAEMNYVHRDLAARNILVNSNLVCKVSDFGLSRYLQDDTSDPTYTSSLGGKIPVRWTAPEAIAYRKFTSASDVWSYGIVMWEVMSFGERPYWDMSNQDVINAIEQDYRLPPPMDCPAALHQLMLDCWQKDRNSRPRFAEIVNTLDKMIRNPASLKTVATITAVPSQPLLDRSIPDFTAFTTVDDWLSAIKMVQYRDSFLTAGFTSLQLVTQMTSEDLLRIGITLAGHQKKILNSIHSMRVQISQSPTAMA

[2] = target: Insulin receptor-related protein (Homo sapiens) (UniProt P14616); assay: IRR(h) Eurofins kinase panel; details: Compound concentration 1.0 uM
[3] = tested on: AMO1; assay: AMO-1 cell line Proliferation assay; type: functional, Homo sapiens; details: time 3 day
[4] = tested on: NCI-H520; assay: NCI- H520 cell line Proliferation assay; type: functional, Homo sapiens; details: time 3 day
[5] = target: T2, Serine/threonine-protein kinase DCLK3 (Homo sapiens) (UniProt Q9C098); assay: DCAMKL3(h) Eurofins kinase panel; details: Compound concentration 1.0 uM
T2 sequence (whole entry): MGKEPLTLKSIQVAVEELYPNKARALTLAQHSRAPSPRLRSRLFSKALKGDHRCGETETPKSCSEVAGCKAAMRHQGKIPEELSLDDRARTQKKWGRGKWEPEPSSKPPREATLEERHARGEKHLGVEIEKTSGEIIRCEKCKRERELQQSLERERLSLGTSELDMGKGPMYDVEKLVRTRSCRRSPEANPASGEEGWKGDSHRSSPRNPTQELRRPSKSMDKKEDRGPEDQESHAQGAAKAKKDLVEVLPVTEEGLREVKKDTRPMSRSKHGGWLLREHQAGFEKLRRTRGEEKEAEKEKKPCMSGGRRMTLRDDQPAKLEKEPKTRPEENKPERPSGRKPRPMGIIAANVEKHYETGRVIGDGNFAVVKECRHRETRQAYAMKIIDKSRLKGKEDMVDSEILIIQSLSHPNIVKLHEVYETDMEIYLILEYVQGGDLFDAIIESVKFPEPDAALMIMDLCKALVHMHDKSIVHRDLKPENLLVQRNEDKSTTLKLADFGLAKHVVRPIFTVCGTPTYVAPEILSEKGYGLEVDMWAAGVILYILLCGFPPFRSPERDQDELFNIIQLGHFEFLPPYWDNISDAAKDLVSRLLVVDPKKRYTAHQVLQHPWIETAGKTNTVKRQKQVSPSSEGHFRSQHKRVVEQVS

[6] = tested on: SK-N-FI; assay: SK-N-F1, control cell line Proliferation assay; type: functional, Homo sapiens; details: time 6 day
[7] = target: D(1A) dopamine receptor (Homo sapiens) (UniProt P21728); details: Compound concentration 10.0 uM
[8] = target: T3, Serine/threonine-protein kinase 17B (Homo sapiens) (UniProt O94768); assay: DRAK2(h) Eurofins kinase panel; details: Compound concentration 1.0 uM
T3 sequence (whole entry): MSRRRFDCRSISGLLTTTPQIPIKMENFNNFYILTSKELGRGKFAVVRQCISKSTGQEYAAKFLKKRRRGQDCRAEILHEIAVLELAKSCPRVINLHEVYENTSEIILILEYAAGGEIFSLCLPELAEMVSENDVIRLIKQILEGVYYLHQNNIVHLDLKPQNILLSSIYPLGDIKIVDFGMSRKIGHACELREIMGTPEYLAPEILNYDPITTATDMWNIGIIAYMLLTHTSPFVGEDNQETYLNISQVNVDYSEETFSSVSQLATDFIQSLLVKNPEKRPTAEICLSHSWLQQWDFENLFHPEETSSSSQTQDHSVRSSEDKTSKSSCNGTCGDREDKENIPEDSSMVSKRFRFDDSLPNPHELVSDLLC

[9] = target: TRAF2 and NCK-interacting protein kinase (Homo sapiens) (UniProt Q9UKE5); assay: TNIK(h) Eurofins kinase panel; details: Compound concentration 1.0 uM
[10] = target: T4, Interleukin-1 receptor-associated kinase 4 (Homo sapiens) (UniProt Q9NWZ3); assay: IRAK4(h) Eurofins kinase panel; details: Compound concentration 1.0 uM
T4 sequence (whole entry): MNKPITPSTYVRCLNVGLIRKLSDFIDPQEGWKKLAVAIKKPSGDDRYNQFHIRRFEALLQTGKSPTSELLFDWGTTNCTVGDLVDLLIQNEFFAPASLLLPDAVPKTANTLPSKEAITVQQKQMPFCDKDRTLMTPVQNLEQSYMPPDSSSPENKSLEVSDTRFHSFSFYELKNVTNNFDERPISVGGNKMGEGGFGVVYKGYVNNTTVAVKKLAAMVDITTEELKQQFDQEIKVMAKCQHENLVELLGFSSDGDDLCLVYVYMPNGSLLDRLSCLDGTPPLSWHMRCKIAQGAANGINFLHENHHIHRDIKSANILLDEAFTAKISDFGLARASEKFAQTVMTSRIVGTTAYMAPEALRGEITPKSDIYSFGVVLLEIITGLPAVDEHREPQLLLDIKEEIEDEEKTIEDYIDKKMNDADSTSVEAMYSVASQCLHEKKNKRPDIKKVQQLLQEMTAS

[11] = target: Serine/threonine-protein kinase MARK2 (Homo sapiens) (UniProt Q7KZI7); assay: PAR-1Balpha(h) Eurofins kinase panel; details: Compound concentration 1.0 uM
[12] = target: Dual specificity tyrosine-phosphorylation-regulated kinase 1A (Homo sapiens) (UniProt Q13627); assay: DYRK1A(h) Eurofins kinase panel; details: Compound concentration 1.0 uM
[13] = target: Serine/threonine-protein kinase A-Raf (Homo sapiens) (UniProt P10398); assay: A-Raf(h) Eurofins kinase panel; details: Compound concentration 1.0 uM
[14] = GPCRScan assay: inhibition of GABA/PBR; parameters: species or system Rattus norvegicus; radioligand conc. used [nm] 0.3 – 2.0, parental cells brain tissue

Serine/threonine-protein kinase A-Raf (Homo sapiens), sequence (P10398 whole entry): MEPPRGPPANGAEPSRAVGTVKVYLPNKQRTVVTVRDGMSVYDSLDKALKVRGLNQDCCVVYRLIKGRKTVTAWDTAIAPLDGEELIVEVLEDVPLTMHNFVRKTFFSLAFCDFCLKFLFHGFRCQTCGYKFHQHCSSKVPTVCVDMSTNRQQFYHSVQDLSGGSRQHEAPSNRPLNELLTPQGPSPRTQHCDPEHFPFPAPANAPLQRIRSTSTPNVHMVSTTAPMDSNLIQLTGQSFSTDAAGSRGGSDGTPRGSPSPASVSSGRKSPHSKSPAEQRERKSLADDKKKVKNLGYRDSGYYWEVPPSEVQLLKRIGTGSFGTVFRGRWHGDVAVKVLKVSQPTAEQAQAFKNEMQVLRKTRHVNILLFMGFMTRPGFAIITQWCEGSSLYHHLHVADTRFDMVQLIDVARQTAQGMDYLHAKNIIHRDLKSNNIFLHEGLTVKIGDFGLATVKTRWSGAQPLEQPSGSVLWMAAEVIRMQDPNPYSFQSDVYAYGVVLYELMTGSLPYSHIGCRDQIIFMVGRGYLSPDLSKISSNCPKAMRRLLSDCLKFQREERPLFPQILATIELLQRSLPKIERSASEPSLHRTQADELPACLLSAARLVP
Serine/threonine-protein kinase MARK2 (Homo sapiens), sequence (Q7KZI7 whole entry): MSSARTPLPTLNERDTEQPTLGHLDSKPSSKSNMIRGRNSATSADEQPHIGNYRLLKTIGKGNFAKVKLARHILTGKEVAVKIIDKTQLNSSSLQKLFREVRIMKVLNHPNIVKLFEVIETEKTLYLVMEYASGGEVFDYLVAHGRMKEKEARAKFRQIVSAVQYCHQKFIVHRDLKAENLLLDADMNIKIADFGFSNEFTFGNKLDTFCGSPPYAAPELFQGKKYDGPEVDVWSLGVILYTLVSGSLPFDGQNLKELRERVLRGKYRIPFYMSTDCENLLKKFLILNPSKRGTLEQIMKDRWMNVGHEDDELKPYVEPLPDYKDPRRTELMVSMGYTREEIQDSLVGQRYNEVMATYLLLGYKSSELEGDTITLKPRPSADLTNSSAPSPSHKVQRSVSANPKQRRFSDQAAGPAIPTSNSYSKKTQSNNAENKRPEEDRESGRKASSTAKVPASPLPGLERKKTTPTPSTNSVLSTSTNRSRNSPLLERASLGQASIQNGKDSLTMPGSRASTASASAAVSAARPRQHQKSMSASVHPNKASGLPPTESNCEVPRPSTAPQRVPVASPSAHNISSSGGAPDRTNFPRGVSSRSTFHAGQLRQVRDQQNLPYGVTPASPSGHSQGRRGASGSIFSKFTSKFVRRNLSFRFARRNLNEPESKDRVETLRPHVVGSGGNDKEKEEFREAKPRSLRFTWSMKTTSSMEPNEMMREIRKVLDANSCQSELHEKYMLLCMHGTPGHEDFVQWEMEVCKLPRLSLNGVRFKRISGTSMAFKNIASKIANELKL
D(1A) dopamine receptor (Homo sapiens), sequence (P21728 whole entry): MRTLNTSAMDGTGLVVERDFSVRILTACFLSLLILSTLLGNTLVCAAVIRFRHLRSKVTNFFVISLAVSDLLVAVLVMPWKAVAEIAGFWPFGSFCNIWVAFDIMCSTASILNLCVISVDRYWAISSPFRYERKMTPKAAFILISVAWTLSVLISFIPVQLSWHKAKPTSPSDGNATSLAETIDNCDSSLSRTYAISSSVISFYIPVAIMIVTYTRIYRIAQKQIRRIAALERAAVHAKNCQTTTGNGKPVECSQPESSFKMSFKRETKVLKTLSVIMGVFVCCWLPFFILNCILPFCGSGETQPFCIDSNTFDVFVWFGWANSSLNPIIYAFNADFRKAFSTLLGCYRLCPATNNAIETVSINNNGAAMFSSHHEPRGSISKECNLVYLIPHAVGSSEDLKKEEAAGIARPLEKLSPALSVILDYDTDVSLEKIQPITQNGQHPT
Insulin receptor-related protein (Homo sapiens), sequence (P14616 27-742 limits assumed): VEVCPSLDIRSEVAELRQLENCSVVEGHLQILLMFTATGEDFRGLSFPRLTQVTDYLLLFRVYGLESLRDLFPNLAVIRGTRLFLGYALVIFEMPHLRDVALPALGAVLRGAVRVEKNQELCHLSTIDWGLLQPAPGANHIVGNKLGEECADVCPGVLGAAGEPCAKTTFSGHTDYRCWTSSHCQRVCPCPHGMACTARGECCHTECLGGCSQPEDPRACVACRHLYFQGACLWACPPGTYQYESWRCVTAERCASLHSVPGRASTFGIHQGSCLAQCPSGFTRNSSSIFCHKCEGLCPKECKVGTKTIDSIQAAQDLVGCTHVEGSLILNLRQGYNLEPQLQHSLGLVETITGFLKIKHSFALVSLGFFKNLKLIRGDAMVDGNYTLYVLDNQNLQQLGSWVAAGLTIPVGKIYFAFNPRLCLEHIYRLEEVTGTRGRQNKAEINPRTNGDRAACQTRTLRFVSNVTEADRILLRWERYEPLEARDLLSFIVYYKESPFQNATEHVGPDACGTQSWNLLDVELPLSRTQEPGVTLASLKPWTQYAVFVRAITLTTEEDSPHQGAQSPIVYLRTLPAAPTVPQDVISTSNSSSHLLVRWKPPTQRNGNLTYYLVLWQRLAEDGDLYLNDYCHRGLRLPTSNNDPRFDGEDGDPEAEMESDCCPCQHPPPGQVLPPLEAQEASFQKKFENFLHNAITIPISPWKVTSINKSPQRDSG
Insulin receptor-related protein (Homo sapiens), sequence (P14616 747-1297 limits assumed): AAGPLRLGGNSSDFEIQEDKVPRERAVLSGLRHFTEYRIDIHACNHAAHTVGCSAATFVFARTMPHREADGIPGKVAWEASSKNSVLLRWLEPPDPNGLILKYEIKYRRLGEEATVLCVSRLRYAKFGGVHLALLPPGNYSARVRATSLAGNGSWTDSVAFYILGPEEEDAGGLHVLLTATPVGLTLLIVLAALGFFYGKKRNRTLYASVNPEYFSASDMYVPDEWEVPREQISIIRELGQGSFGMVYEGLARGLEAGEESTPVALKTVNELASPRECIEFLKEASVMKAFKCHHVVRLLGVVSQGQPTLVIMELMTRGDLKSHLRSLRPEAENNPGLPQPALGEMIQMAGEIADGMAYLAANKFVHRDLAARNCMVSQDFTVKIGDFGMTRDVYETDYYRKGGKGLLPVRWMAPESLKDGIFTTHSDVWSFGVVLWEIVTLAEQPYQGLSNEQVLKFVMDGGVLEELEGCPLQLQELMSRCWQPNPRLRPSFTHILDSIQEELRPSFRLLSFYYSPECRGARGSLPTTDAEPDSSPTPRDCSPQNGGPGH
TRAF2 and NCK-interacting protein kinase (Homo sapiens), sequence (Q9UKE5 whole entry, looked up): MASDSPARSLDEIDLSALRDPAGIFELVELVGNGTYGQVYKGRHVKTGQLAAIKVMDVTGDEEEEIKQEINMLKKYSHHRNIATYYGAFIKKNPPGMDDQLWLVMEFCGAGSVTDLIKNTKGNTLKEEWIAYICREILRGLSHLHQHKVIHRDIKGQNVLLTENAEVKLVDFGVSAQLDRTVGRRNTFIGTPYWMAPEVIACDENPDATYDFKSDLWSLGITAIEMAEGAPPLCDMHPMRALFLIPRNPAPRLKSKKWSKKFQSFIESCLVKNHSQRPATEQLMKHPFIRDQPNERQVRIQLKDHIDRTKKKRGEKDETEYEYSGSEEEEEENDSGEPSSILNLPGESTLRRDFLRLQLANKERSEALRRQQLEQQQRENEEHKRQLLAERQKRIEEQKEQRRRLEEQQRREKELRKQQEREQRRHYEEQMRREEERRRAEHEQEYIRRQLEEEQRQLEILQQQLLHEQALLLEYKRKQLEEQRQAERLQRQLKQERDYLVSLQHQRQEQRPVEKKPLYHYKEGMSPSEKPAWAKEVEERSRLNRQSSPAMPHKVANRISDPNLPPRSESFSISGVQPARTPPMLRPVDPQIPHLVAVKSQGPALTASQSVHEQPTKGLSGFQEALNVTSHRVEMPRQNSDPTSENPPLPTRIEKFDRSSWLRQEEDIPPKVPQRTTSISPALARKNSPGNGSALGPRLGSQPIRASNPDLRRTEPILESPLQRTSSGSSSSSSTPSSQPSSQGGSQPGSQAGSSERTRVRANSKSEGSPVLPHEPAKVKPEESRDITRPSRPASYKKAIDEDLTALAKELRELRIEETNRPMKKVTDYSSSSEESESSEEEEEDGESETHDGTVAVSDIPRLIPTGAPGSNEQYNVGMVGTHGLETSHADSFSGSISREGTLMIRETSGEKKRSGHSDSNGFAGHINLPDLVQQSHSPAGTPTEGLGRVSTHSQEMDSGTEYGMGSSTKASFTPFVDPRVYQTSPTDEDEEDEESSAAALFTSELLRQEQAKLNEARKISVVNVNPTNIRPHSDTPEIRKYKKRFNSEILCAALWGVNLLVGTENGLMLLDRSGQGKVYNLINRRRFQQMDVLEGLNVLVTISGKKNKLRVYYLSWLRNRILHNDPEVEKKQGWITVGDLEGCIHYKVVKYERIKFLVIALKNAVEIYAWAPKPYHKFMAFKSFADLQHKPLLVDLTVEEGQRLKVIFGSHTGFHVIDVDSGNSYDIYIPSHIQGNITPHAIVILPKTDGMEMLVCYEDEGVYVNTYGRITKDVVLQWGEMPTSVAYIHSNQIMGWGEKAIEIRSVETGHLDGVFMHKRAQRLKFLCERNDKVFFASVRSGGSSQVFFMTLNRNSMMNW

Structure (SMILES) | % residual kinase activity [1] | % residual kinase activity [2] | Cell Proliferation IC50 [3] | Cell Proliferation IC50 [4] | % residual kinase activity [5] | Cell Proliferation IC50 [6] | inhibition [7] | % residual kinase activity [8] | % residual kinase activity [9] | % residual kinase activity [10] | % residual kinase activity [11] | % residual kinase activity [12] | % residual kinase activity [13] | Ki [14] | pKi [14]
CCc1ccccc1C(=O)Nc1n[nH]c2c(C)c(F)c(C3C(C#N)=C(C)N(C)C(C)=C3C#N)cc12 [BAY-3827] | 96% | 101% | >33 µM | 24.1 µM | 100% | 21.2 µM | 67.4% | 99% | 49% | 103% | 32% | 107% | 78% | – | –
CC1=C(C#N)C(c2ccc3c(c2)c(NC(=O)c2ccccc2C)nn3C)C(C#N)=C(C)N1 [BAY-974] | – | – | – | – | – | – | – | – | – | – | – | – | – | 0.021 µM | 7.69
